# Measurements published in US11497756B2, “Treatment regimen for cancers that are insensitive to BCL-2 inhibitors using the MCL-1 inhibitor alvocidib” (Sumitomo Pharma Oncology, Inc., priority 2017, dated 2022).
# pEC50: −log10 of the molar value.
# Key:
# [1] = in vivo; cited from earlier work
# [2] = system: MCL-1 expression in MV-4-11 cells; assay: MCL-1 protein expression in MV-4-11 cells treated in vitro; type: cell-based
# Method: MV-4-11 cells were treated with alvocidib in vitro, harvested and analyzed to probe for changes relative to controls. Additionally, other exemplary CDK9 inhibitors (i.e., palbociclib and dinaciclib) were evaluated, along with alvocidib.
# [3] = system: OCI-AML3 cells; assay: In vivo tumor growth, immune deficient mice injected with OCI-AML3 cells; details: 2.5 mg/kg intraperitoneal, once a day for 21 days, by day 21, FIG. 3
# Method: Alvocidib was used alone to test in vivo activity in OCI-AML3 cells. […] To test the in vivo activity, immune deficient mice injected with OCI-AML3 cells were treated with 2.5 mg/kg of alvocidib via intraperitoneal injection or 100 mg/kg of Venetoclax/ABT-199 per os (i.e., oral administration). Each treatment (i.e., alvocidib and Venetoclax/ABT-199) was administered once a day for 21 days.
# [4] = system: MCL-1 expression in OCI-AML3 cells; assay: MCL-1 expression in OCI-AML3 cells in vitro; type: cell-based; details: multiple time points after treatment, FIG. 4
# Source text: MCL-1 expression was decreased in OCI-AML3 cells at multiple time points following treatment with alvocidib (FIG. 4).
# [5] = system: HEL cells; assay: Cell viability (CellTiter-Glo) in HEL erythroleukemia cells; type: cell-based; details: 72 hours, compared to Venetoclax, FIG. 5
# Method: (§1) To assess the effects of alvocidib or Venetoclax treatment on leukemic cells, the erythroleukima cell line, HEL, was cultured in RPMI media supplemented with 10% FBS and penicillin/streptomycin. Cell viability was assessed in treated cells using the CellTiter-Glo reagent (Promega), according to manufacturer protocol. Cells were treated in 96-well plates for 72 hours, before being analyzed in a luminescence compatible plate reader. Curve fitting and analysis was performed using Graphpad Prism software.
# [6] = system: OPM2 cells; assay: Cell viability (CellTiter-Glo) in OPM2 multiple myeloma cells; type: cell-based; details: 72 hours, compared to Venetoclax, FIG. 6
# Method: as §1, with “multiple myeloma” for “leukemic”, “OPM2 cells were” for “the erythroleukima cell line, HEL, was”
# [7] = system: OCI-AML3 cells; assay: Sensitivity of OCI-AML3 cells to Venetoclax/ABT-199; type: cell-based; details: Homo sapiens, OCI-AML-3
structure (smiles),measurement,setting,value
CC1(C)CCC(c2ccc(Cl)cc2)=C(CN2CCN(c3ccc(C(=O)NS(=O)(=O)c4ccc(N[C@H](CCN5CCOCC5)CSc5ccccc5)c(S(=O)(=O)C(F)(F)F)c4)cc3)CC2)C1 [navitoclax],toxicity,[1],toxic due to thrombocytopenia
CN1CC[C@H](c2c(O)cc(O)c3c(=O)cc(-c4ccccc4Cl)oc23)[C@H](O)C1 [alvocidib],MCL-1 expression,"[2]; 24 hour treatment, FIG. 2",decreased MCL-1 expression
same,impact on MCL-1 protein levels compared with the other CDK9 inhibitors,"[2]; 24 hour treatment, FIG. 2",strongest impact on MCL-1 protein levels
same,MCL-1 expression relative to controls,"[2]; alvocidib 0-8 μM, FIG. 1",decreases MCL-1 expression in MV-4-11 in a dose dependent manner
same,reduction in tumor growth,[3],50%
same,MCL-1 expression,[4],decreased
same,cell viability,[5],inhibition of cell viability
same,cell viability,[6],inhibition of cell viability
CC1(C)CCC(CN2CCN(c3ccc(C(=O)NS(=O)(=O)c4ccc(NCC5CCOCC5)c([N+](=O)[O-])c4)c(Oc4cnc5[nH]ccc5c4)c3)CC2)=C(c2ccc(Cl)cc2)C1 [Venetoclax],pEC50,[7],5.63
